These results are taken from patent US20230390240A1, “METHODS OF TREATMENT” (Board of Supervisors of Louisiana State University and …, priority 2020, published 2023).

The target of assay [1] is T1, mutated RPE65 (R91W KI mice) (Mus musculus, UniProt Q91ZQ5, R91W).
T1 construct: host or cells: R91W knock-in (KI) mice
T1 sequence (Q91ZQ5 1-533 R91W): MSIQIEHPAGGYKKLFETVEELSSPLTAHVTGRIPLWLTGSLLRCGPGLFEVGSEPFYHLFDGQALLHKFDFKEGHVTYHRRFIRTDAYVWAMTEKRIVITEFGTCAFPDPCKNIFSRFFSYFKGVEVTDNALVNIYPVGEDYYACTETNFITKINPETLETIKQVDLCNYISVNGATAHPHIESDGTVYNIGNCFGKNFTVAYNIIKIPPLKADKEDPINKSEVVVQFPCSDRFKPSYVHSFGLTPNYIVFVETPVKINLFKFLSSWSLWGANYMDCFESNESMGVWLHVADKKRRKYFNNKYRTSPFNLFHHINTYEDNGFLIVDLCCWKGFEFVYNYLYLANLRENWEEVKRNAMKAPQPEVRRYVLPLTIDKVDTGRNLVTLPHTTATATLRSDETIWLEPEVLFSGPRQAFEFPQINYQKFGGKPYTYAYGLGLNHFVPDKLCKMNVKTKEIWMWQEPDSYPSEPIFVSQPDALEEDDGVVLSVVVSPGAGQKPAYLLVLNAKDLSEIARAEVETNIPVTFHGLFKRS
As to conditions: cited from earlier work.

The test system of assay [2] is fatty acid transport protein 4 (FATP4). The experiment in a line: Immunoblot analysis of FATP4 in the RPE of mice treated daily with drug. It is filed as in vivo, mouse. The conditions noted are these: one-month-old mice treated daily, oral; Ezetimibe 10 mg/kg, Simvastatin 30 mg/kg; vs DMSO. (Immunoblotting shows a protein as a band on a membrane.)
Description: Actin was detected as the loading control.
The test system of assay [3] is FATP4 in intestinal cells. The conditions noted are these: animal studies; cited from earlier work.
In assay [4] the test system is S-opsin in retinal explants. As to the kind of experiment: Protease inhibitor assay: immunoblot of S-opsin in retinal explants. As to conditions: 5 hours. It is filed as cell-based, mouse. An excerpt: OS, outer segments; ONL, Outer nuclear layer; OPL, outer plexiform layer. Scale bar, 20-μm. (B) Percentage of Sopsin mislocalization estimated by dividing S-opsin immunofluorescence in the OPL by the sum of immunofluorescence in the OPL and OS. Note the decrease in S-opsin mislocalization in KI;Fatp4^−/− mice. (C,D) Immunoblot analysis of S-opsin in retinal explants treated with the indicated concentrations of MG132 (C) or pepstatin A (D). DMSO was used in the MG132 and pepstatin A null controls. Histograms show relative immunoblot intensities of S-opsin in MG132-treated and pepstatin A-treated retinas versus DMSO-treated controls. (E) Representative immunoblot analysis of M-opsin in Triton X-100 (Tx)-soluble and -insoluble retinal fractions separated by ultracentrifugation (right panel). […] (F) Percentages of Tx-soluble and -insoluble Mopsin in WT, KI, and KI;Fatp4^−/− mice are estimated from the immunoblot intensities in (E).
Immunoblot analysis Protein samples were separated by SDS-PAGE and transferred to an Immobilon-P membrane. The membrane was incubated in blocking buffer, primary antibody, and horseradish peroxidase-conjugated anti-rabbit or mouse IgG secondary antibody. Antibodies against RPE65 (63), LRAT (64, 65), FATP4 (66), β-actin, rhodopsin, M-opsin (MilliporeSigma Co.), S-opsin (Santa Cruz Biotechnology) were used as the primary antibodies. Immunoblots were visualized with the ECL Prime Western blotting detection reagent and ImageQuant LAS 4000 (48). Signal intensity of each band was quantified using ImageQuant TL software.
Protease inhibitor assay Eyes were enucleated from euthanized 4-week-old mice, and the corneas and lenses were removed. The neural retinas dissected from the eyecups were maintained in the DMEM-F12 medium (Thermo Fisher Scientific Inc.) supplemented with 10% fetal bovine serum and antibiotics in a 5% CO2 incubator at 37° C. After incubating for 5 hours in the presence of a series of increasing concentrations of MG132 (0˜25 μM) or pepstatin A (0˜30 μM), the retinas were subjected to immunoblot analysis.

A further assay has as its target T2, RPE65 isomerase (Homo sapiens, UniProt Q16518).
T2 sequence (Q16518 1-533): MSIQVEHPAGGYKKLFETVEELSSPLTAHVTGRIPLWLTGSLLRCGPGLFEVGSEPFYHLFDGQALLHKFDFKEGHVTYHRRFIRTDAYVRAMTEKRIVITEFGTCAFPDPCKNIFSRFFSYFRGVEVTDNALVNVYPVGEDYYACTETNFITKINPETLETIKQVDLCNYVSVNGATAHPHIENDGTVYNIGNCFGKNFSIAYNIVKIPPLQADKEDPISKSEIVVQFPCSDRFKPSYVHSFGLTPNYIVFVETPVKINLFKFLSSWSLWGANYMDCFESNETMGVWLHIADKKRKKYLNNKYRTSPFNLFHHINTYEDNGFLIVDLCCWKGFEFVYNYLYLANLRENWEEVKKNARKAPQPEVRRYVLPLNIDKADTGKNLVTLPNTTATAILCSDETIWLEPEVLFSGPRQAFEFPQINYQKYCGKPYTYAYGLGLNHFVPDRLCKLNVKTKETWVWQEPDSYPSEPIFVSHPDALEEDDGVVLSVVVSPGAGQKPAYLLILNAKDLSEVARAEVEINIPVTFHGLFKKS
As to conditions: in vitro; cited from earlier work.

Peptide text beside a SMILES is read from it. * marks the point of attachment. Cbz = O=C(OCc1ccccc1)*

Turning to `O=C(O)CCCc1ccccc1` [4-phenylbutyrate], in assay [1] (KI mice), the “elevation of 11cRAL” value is listed as 96%. Moreover, the “function of mutated RPE65; preservation of photoreceptors and vision” value in assay [1] (systemic administration, mouse model of LCA) is reported as “could partially rescue the function of mutated RPE65”.
`O=C1[C@H](CC[C@H](O)c2ccc(F)cc2)[C@@H](c2ccc(O)cc2)N1c1ccc(F)cc1` [Ezetimibe]: the “expression levels of FATP4 in the retinal pigment epithelium (RPE)” value in assay [2] was “reduced expression levels”. Besides, in assay [3], the “expression of FATP4 in intestinal cells” value was “markedly reduced expression of FATP4”.
For `CC(C)C[C@@H](C=O)NC(=O)[C@H](CC(C)C)NC(=O)[C@H](CC(C)C)NC(=O)OCc1ccccc1` [MG132] (Cbz-Leu-Leu-Leu-aldehyde), the “relative amount of S-opsin, increase vs DMSO-treated retinas” value worked out at 3 fold in assay [4] (KI retinas, MG132 (0~25 μM)) and 1.6 fold in assay [4] (KI;Fatp4−/− retinas, MG132 (0~25 μM)).
Turning to `CCCCCCCCCCCCCCCCCCCCCCCC(=O)SCCNC(=O)CCNC(=O)[C@H](O)C(C)(C)COP(=O)(O)OP(=O)(O)OC[C@H]1O[C@@H](n2cnc3c(N)ncnc32)[C@H](O)[C@@H]1OP(=O)(O)O` [lignoceroyl (C24:0)-CoA], at RPE65 isomerase, the “synthesis of 11-cis-retinol (11cROL)” value is “inhibited the synthesis”.
Regarding `CCCCCCCCCCCCCCCC(=O)SCCNC(=O)CCNC(=O)[C@H](O)C(C)(C)COP(=O)(O)OP(=O)(O)OC[C@H]1O[C@@H](n2cnc3c(N)ncnc32)[C@H](O)[C@@H]1OP(=O)(O)O` [palmitoyl (C16:0)-CoA], on RPE65 isomerase, the “synthesis of 11-cis-retinol (11cROL)” value is on record as “promoted the synthesis”.
As for pepstatin A, the “relative amount of S-opsin, increase vs DMSO-treated retinas” value in assay [4] (KI retinas, pepstatin A (0~30 μM)) was around 55%; in assay [4] (KI;Fatp4−/− retinas, pepstatin A (0~30 μM)), around 43%.
